# Experimental data as given in US10947202B2, “Sodium ion channel inhibitors and pharmaceutically acceptable salts and polymorphs thereof and uses thereof” (SHANGHAI HAIYAN PHARMACEUTICAL TECHNOLOGY CO., LTD., priority 2017, dated 2021).
# Like-named read-outs stand apart in the source and are kept apart here.
# Columns and labels:
# [1] = Metabolism stability test in liver microsomes; format: in vitro ADME; conditions: human liver microsomes
# Description: Buffer A: 1 L solution of 100 mM potassium dihydrogen phosphate containing 1 mM EDTA (Sigma, V900157-100G) was prepared.
# Buffer B: 1 L solution of 100 mM dipotassium hydrogen phosphate containing 1 mM EDTA was prepared.
# Buffer C: 700 mL of buffer B was taken out and titrated with buffer A to pH 7.4.
# 2.1 10 μl of 10 mM compound to be tested and 10 μl of 10 mM ketanserin were taken out and 190 μl of pure acetonitrile was added to each of them to prepare 500 μM compound to be tested and ketanserin, respectively.
# 2.2 20 μl (20 mg/mL) of liver microsomes (Corning Lot. NO. 4133007) stock solution was added to 513.4 μl of buffer C on wet ice. 0.75 mg/mL liver microsomal solution was obtained.
# 2.3 1.5 μl of each of the above-mentioned compound to be tested and ketanserin solution was added to 498.5 μl of liver microsomal solution (0.7 5 mg/mL) respectively on wet ice. 1.5 μM mixed solution of compound to be tested and 1.5 μM mixed solution of ketanserin were obtained.
# 2.4 At the time points 0, 5, 15, 30, 45, and 60 min, 30 μl of the mixed solution of compound to be tested and 30 μl of the mixed solution of ketanserin were dispensed into the reaction plate on wet ice, respectively.
# 2.5 5 mg reduced coenzyme II (Roche, 10621706001) was weighed and dissolved in 1 mL of buffer C. 6 mM reduced coenzyme II solution was obtained. The reduced coenzyme II solution was dispensed into the reaction plate.
# 2.6 Imipramine was dissolved to give a 10 mM solution. 10 μl imipramine solution was added to 100 mL of blank acetonitrile to generate the internal reference.
# 2.7 At 0 min, 135 μL of iced acetonitrile (Merck (Lot. 1778229518)) containing the internal reference was added to each well and then 15 μL of buffer C was added.
# 2.8 The reaction plate was placed into a 37° C. water bath incubator for 5 min. In the reaction plate, 15 μL of reduced coenzyme II solution was added to each well to initiate the reaction, and the time keeping was started. At the time points of 5, 15, 30, 45, and 60 min, 135 μL of iced acetonitrile containing the internal reference was added to each well to terminate the reaction.
# 2.9 The reaction plate was sealed with an aluminum film, placed on a vibration mixer and shaken at 500 rpm for 5 min. The plate was then centrifuged in a centrifuge at 3750 rp for 15 min.
# 2.10 The sample was diluted with pure water in accordance with the ratio of 1:1 and detected by LC/MS. […]
# Wherein, the K value and the proportional factor were calculated by those skilled in the art according to the methods described in the prior art and contained in the instructions of the liver microsome product.
# [2] = Solubility experiment; format: physicochemical; conditions: listed as free base sample
# Description: The solubility of crystal forms A, D, E-1, E-3, F and free base sample in buffer of 0.1M HCl, pH 4.5, pH 6.8 and water was tested at room temperature. In the test, the standard curves of free base sample and five crystal forms were plotted. Subsequently, 6 mg of API and five crystal form samples were weighed, respectively, and 2 ml of the solvent was added, the mixture was shaken at room temperature for 4 h, then ultrasonicated for 30 min, centrifuged, and the supernatant was taken out, filtered through a 0.45 μm filter and injected, and the solubility was measured, the results are shown in Table 28 (concentration is in mg/ml).
# [3] = biological target: T1, hERG potassium ion channel (Homo sapiens, UniProt Q12809); assay: Effect on the hERG potassium ion channel (CHO hERG cells, manual patch clamp); format: cell-based
# T1 construct: host or cells: CHO (CHO hERG, passage P15)
# T1 sequence (Q12809 whole entry): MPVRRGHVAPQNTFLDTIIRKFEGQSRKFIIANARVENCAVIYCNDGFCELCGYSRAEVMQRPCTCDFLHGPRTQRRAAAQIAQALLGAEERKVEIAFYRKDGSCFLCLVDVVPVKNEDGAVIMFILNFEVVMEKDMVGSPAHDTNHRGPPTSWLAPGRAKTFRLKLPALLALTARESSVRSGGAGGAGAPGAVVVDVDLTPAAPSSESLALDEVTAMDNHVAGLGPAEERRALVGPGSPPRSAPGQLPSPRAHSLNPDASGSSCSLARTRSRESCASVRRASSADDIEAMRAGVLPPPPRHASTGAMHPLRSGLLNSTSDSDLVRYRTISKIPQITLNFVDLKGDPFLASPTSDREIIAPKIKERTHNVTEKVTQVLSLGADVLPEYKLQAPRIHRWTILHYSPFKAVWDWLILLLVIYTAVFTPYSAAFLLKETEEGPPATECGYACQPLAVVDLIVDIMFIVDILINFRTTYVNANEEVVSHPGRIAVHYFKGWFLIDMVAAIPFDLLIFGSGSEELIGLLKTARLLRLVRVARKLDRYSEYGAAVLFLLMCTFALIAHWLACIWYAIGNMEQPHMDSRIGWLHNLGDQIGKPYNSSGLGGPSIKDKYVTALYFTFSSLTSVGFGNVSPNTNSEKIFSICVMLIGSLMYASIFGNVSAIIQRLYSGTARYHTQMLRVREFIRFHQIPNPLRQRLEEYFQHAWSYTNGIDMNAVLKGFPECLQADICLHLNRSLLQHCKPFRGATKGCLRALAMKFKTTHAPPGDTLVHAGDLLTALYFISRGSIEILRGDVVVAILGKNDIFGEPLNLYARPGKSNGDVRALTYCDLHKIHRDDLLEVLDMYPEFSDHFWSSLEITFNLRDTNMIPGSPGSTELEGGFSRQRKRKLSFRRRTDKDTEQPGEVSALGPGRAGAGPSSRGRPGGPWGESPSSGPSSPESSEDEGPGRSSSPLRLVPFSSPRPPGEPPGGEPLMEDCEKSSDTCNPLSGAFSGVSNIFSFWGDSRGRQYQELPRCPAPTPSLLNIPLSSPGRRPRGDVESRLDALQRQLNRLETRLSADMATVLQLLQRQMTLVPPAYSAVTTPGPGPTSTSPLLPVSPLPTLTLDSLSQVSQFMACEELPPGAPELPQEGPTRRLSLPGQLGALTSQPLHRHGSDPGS
# Description: 2.1.1 Cells used in this experiment are CHO cell lines (supplied by Sophion Bioscience, Denmark) which are hERG cDNA transfectant and stably express hERG channels, cell progeny is P15. Cells are cultured in medium containing the following ingredients Invitrogen): Ham's F12 medium, 10% (v/v) inactivated fetal bovine serum, […] hygromycin B, […] Geneticin.
# 2.1.2 CHO hERG cells were grown in Petri dishes containing the above medium and cultured in an incubator containing 5% CO2 at 37° C. CHO hERG cells were transferred onto round glass plates in Petri dishes, and grown on the same culture medium and culture conditions as above 24 h to 48 h prior to the electrophysiological experiments, and the density of CHO hERG cells on each round glass plate needs to meet the requirements that the vast majority of cells are independent and individual.
# The following solutions (supplied by Sophion) were used for electrophysiological recording. The reagents used in this test were provided by Sigma.
# In this experiment, whole-cell current recording was performed using a manual patch clamp system (HEKA EPC-10 signal amplification and digital conversion system, purchased from HEKA Electronic, Germany). The round glass slide of which surface CHO hERG cells were grown on was placed in an electrophysiological recording slot under an inverted microscope. Perfused steadily with extracellular fluid in recording slot (approximately 1 ml per minute). A conventional whole-cell patch clamp current recording technique was used in the experiment. Unless otherwise specified, experiments were performed at normal room temperature (about 25° C.). Cell clamping was at −80 mV. […] The hERG potassium current recorded in the above steps could be superfused for test drug after the steady perfusion state of the extracellular fluid in the recording slot had been stabilized until the inhibition of the hERG current by the drug reached a steady state. […]
# The test data were analyzed by the data analysis software provided by HEKA Patchmaster (V2x73.2), Microsoft Excel and Graphpad Prism 5.0.
# [4] = biological target: Nav1.8 (Homo sapiens, UniProt Q9Y5Y9); assay: Selectivity for other ion channels: Nav1.8; format: cell-based
# Sequence of Nav1.8 (Q9Y5Y9 whole entry): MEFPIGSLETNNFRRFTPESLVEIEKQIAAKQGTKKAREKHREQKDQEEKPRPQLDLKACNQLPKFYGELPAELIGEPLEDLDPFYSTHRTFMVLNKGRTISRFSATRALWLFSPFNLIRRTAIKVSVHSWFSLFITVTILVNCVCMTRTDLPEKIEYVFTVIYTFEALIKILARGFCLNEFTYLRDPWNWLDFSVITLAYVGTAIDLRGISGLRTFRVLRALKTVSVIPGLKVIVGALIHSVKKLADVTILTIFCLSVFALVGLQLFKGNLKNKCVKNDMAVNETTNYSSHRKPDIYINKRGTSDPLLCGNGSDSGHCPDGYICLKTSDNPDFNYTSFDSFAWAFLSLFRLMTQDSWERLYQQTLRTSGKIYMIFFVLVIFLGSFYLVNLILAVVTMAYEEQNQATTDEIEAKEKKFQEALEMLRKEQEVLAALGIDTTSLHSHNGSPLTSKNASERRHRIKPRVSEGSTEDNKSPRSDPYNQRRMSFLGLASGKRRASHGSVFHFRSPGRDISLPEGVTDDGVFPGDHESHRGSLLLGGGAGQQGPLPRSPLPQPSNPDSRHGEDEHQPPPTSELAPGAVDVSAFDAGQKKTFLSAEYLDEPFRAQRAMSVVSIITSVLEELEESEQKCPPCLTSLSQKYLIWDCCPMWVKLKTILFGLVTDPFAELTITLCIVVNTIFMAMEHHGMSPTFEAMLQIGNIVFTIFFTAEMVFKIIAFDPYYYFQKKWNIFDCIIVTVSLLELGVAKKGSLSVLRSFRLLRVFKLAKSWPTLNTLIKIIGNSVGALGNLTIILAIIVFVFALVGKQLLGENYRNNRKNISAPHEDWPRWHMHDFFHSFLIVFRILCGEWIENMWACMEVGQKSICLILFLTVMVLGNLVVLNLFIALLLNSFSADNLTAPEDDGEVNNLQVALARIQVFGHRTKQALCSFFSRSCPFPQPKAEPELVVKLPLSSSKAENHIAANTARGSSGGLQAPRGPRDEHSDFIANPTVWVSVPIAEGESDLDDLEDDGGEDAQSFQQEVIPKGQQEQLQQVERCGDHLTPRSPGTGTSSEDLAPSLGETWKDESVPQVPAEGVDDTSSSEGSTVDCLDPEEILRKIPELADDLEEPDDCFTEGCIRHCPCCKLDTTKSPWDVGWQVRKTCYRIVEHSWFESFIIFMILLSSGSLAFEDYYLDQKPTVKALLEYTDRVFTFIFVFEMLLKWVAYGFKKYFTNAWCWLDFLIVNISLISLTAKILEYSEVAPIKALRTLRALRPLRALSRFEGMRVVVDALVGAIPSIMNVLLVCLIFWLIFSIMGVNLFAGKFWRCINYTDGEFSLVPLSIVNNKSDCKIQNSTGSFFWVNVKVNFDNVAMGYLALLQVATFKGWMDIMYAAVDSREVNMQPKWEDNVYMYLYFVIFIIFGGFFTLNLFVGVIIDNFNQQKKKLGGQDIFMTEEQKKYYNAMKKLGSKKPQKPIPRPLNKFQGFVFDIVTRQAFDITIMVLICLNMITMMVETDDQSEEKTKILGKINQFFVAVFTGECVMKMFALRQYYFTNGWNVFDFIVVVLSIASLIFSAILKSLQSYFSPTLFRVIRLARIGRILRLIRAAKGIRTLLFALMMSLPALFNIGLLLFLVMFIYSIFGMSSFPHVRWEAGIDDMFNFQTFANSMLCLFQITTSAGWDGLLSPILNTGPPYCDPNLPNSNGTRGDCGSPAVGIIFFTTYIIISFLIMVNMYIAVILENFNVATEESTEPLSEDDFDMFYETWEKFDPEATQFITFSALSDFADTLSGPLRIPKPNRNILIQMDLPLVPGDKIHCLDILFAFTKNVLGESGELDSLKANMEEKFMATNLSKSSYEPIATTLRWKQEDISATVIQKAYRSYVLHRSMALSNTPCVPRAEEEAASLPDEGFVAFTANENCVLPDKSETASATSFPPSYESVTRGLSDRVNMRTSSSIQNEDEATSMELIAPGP
smiles,measurement,setting,value
"Cc1cc(N2CCN(Cc3cc(F)c(C(=O)NS(=O)(=O)C4CC4)cc3Cl)CC2)ccc1Cl [the free base of formula X compound, 5-chloro-4-((4-(4-chloro-3-methylphenyl)piperazin-1-yl)methyl)-N-(cyclopropylsulfonyl)-2-fluorobenzamide]",Clearance ratio,[1],20.12 mL/min/kg
same,metabolic stability,[1],good metabolic stability
same,Solubility (mg/mL) 0.1M HCl,"[2]; 0.1M HCl, room temperature",0.065 mg/mL
same,Solubility (mg/mL) pH4.5,"[2]; buffer pH 4.5, room temperature",0.001 mg/mL
same,Solubility (mg/mL) pH6.8,"[2]; buffer pH 6.8, room temperature",0.021 mg/mL
same,Solubility (mg/mL) H2O,"[2]; water, room temperature",0.027 mg/mL
same,inhibitory activity on the hERG potassium ion channel,[3],little inhibitory activity
same,IC50,[3]; read-out: hERG inhibitory concentration IC50,> 10000 nM
same,IC50,[3]; read-out: hERG potassium ion channel (IC50/nM),> 10000 nM
same,IC50,[4],18900 nM
